Entries after “also recorded” stand apart in the source; their conditions may differ. Ends that are not written are not given here.
Assays:
[1] = Reverse-phase HPLC retention time as measure of peptide hydrophobicity; assay type: physicochemical; conditions: HPLC on reverse-phase matrix, aqueous solution; used by the paper as measure of hydrophobicity
From the text: The retention time of peptides on a reverse-phase matrix has been reported to be related to peptide hydrophobicity ([34]).

RAW264.7 cells [2] = experiment: Cellular uptake and localization of FITC-labeled peptides (confocal microscopy, flow cytometry); assay type: cell-based, mouse; conditions: N-terminus FITC-labeled peptide, 10 μg/ml, 24 h, 37°C, confocal microscopy and flow cytometry (average FITC intensity)
Experimental: RAW264.7 cells were treated with N-terminus FITC-labeled peptides at 10 μg/ml for 24 h at 37°C; in the dark. Then, the RAW264.7 cells were rinsed with PBS three times, fixed with paraformaldehyde and washed with PBS. The cell nuclei were stained with DAPI (diluted 1:500 in PBS) (Sigma, USA) for 5 min, and the cells were washed with PBS. The above cells were spread on a glass slide, fixed and observed with a Leica TCA sp5 confocal microscope (Germany).
RAW264.7 cells were stained with 10 μg/ml N-terminus FITC-labeled peptides at 37°C in the dark for 24 h. Afterwards, the RAW264.7 cells were harvested and rinsed with PBS five times. The average FITC intensity in the cells was measured via flow cytometry.

[3] = test system: LPS-stimulated RAW264.7 cells; experiment: Time of addition experiment (peptide pretreatment, LPS neutralization, post-treatment) in RAW264.7 cells; assay type: cell-based, mouse; conditions: ELISA
Experimental: To identify the mechanisms underlying the anti-inflammatory effects, three different types of treatments were performed as follow.
Briefly, 10 μg/ml peptide was added to the cell culture medium and incubated with cells for 1 h at 37°C Afterwards, the RAW 264.7 cells were washed with PBS and cultured with fresh medium containing 100 ng/ml LPS for 12 h at 37°C. After treatment, TNF-α, IL-6, and IL-1β secretion in the cell supernatants was assessed.
The peptides (10 μg/ml) were incubated with 100 ng/ml LPS directly for 1 h at 37°C. RAW 264.7 cells were stimulated with these mixtures for 12 h at 37°C. Afterwards, the TNF-α, IL-6 and IL-1β levels in the cell supernatants were assessed.
Briefly, 100 ng/ml LPS was added to the cell culture medium and incubated with cells for 1 h at 37°C. Afterwards, the RAW 264.7 cells were washed with PBS and cultured with fresh medium containing 10 μg/ml peptides for 12 h at 37°C. Afterwards, the TNF-α, IL-6, and IL-1β levels in the cell supernatants were assessed.
(§1) The levels of tumor necrosis factor (TNF)-α, interleukin (IL)-6, and IL-1β in cell culture supernatants and the levels of TNF-α, IL-6, and IL-1β in the serum of mice were detected using commercial ELISA kits (eBioscience, San Diego, USA) according to the manufacturer’s instructions. The levels of serum alanine amino transferase (ALT) and aspartate amino transferase (AST) were detected using commercial reagent kits (Nanjing Jiancheng Bioengineering Institute, Nanjing, China). The activity of myeloperoxidase (MPO) in the liver of mice was detected using an ELISA kit (Boster, Wuhan, China) according to the manufacturer’s instructions.

RAW264.7 cells [4] = experiment: CCK-8 cell viability assay; assay type: cell-based, mouse; conditions: RAW264.7 macrophages, CCK-8, 0 to 80 μg/ml, 24 h or 72 h, 37°C
Experimental: The viability of peptide-treated RAW264.7 cells was determined using a Cell Counting Kit-8 (CCK-8) Assay Kit (Dojindo) ([35]). RAW264.7 cells were plated in 96-well plates at a density of 3×10^4 cells/ml in 100 μl DMEM overnight. The cell culture medium was then supplemented with fresh medium containing candidate peptides in a series of concentrations, and the plates were incubated for another 24 h or 72 h. Each well was incubated with 10 μl CCK-8 solution for 4 h in the dark. Afterwards, the absorbance at 450 nm was measured using a microplate reader. Cell viability was determined by:
Cell viability (%)=(OD450sample/OD450(control))×100%

[5] = LPS neutralization, chromogenic end-point Tachypleus Amebocyte Lysate (TAL) assay; assay type: binding, E. coli
Experimental: The neutralization of LPS by the peptides was assessed through a quantitative Chromogenic End-point Tachypleus Amebocyte Lysate (CE TAL) assay using a QCL-1000 kit (XIAMEN BIOENDO TECHNOLOGY CO., China). LPS (E. coli, O111:B4, Sigma-Aldrich, USA) at a final concentration of 1.0 U/ml was incubated with various concentrations of the peptides (0 to 64 μg/ml final concentration) at 37°C for 15 min. Afterwards, the mixtures were incubated with TAL assay reagent at 37°C; for 6 min, and the absorbance was measured at 540 nm.

TLR4/MD-2 complex [6] = experiment: Surface plasmon resonance binding; conditions: SPR, Biacore X100, PBS with 0.05% Tween 20, 30 μl/min, 1:1 model, 0 to 10 μM
Experimental: SPR assays were performed using a Biacore X100 instrument (GE Healthcare, Pittsburgh, PA, USA). PBS containing 0.05% Tween 20 was used as the running buffer. The running buffer was continuously passed into the reaction chamber at 30 μl/min. Immobilization of CTP-NH2 on the chip surface was performed according to an amino coupling protocol. […] Running buffer was injected into the empty channel as a reference. To regenerate the chip surface at the end of each experiment, 10 mM Gly-HCl buffer (pH 2.5) was injected. ProteOn manager software (version 2.0) was used to analyze the experimental data. The binding curves were processed for the start injection alignment and baseline. A reference-subtracted sensorgram was then fitted to the curves describing a homogeneous 1:1 model. Data from the protein surfaces were grouped together to fit the association kinetic rate constant (Ka) and the dissociation rate constant (Kd). The equilibrium dissociation constant (KD) for the peptide-TLR4/MD-2 interaction was calculated as follows: […]

[7] = test system: LPS-stimulated RAW264.7 cells; experiment: Anti-inflammatory assay in LPS-stimulated RAW264.7 cells (ELISA of cytokines); assay type: cell-based, mouse; conditions: 10 μg/ml peptide 30 min before 100 ng/ml LPS, 12 h, 37°C, ELISA of supernatant
Experimental: RAW264.7 cells were treated with or without 10 μg/ml peptides for 30 min before the addition of 100 ng/ml LPS (E. coli, O55:B5, Sigma-Aldrich, Germany) and further incubation for 12 h at 37°C After treatment, the concentrations of TNF-α, IL-6, and IL-1β in the cell supernatants were assessed.
as §1

TLR4/MD-2 complex [8] = target: T1, TLR4/MD-2 complex (Mus musculus, UniProt Q9QUK6); experiment: SPR
T1 chain 1: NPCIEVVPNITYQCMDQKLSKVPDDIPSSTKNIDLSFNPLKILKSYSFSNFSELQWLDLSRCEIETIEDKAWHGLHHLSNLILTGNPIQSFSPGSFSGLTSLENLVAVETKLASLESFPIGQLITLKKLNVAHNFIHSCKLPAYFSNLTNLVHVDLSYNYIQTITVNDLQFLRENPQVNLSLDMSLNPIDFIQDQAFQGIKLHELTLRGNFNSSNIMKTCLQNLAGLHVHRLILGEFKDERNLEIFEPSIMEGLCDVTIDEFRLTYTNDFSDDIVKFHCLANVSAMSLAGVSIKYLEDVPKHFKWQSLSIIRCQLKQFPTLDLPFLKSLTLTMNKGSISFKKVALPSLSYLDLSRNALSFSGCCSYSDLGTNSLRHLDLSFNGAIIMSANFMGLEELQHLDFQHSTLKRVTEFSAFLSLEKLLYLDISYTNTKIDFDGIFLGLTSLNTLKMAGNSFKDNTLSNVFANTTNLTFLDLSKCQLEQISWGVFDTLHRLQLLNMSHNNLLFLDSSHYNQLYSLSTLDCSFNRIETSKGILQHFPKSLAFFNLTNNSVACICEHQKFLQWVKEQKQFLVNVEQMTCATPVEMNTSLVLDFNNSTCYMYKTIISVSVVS
T1 chain 2: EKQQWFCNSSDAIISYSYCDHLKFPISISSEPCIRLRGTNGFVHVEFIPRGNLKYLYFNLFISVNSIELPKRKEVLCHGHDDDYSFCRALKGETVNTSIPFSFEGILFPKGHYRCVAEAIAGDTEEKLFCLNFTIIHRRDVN

Molecule	Retention time [1] [min]	cellular uptake and localization (RAW264.7 cells [2])	TNF-α and IL-6 level, peptide used to pretreat cells or added after LPS induction ([3]; 10 μg/ml peptide 1 h then wash and 100 ng/ml LPS 12 h, or LPS 1 h, wash, then peptide 12 h)	TNF-α and IL-6 release, peptide incubated with LPS ([3]; 10 μg/ml peptide incubated with 100 ng/ml LPS 1 h at 37°C, mixture on cells 12 h)	cytotoxicity (comparison in words) (RAW264.7 cells [4])	50% binding rate value (LPS neutralization) ([5]; LPS 1.0 U/ml with 0 to 64 μg/ml peptide, 37°C 15 min, TAL reagent 6 min, absorbance 540 nm)	LPS neutralization activity ([5]; chromogenic TAL assay, LPS 1.0 U/ml, 0 to 64 μg/ml peptide)	Ka (association kinetic rate constant) (TLR4/MD-2 complex [6]) [M⁻¹ s⁻¹]	TNF-α, IL-6 and IL-1β secretion levels [7]	Kd (TLR4/MD-2 complex [8]) [µM]
RWGRFLRKIRRFRRKDVT [CTP]	10.94	rarely entered RAW264.7 cells	scarcely reduced the elevation in the pro-inflammatory cytokines TNF-α; also recorded: barely exerted such effects	potent inhibition of pro-inflammatory cytokine release	lower cytotoxicity than the parental peptide (CATH2) but higher cytotoxicity than TP5	approximately 45.32 ± 5.19 μg/ml	inhibited activation of LPS in a dose-dependent manner	1.34e+07	enhanced inhibitory activity against LPS-induced inflammation	–
RWGRFLRKIRRFRRKDVT [CTP (CATH2(1-13)-TP5 hybrid peptide)]	–	–	–	–	–	–	–	–	–	1.4
RWGRFLRKIRRFRRKDVT-NH2 [CTP-NH2 (CATH2(1-13)-TP5 hybrid peptide, C-terminal amide)]	–	–	–	–	–	–	–	–	–	0.947
